Laboratory results as given in patent publication US20230125667A1, “NOVEL TDZD ANALOGS AS AGENTS THAT DELAY, PREVENT, OR REVERSE AGE-ASSOCIATED DISEASES AND AS ANTI-CANCER AND ANTILEUKEMIC AGENTS” (United States Government as represented by the Department …, priority 2020, published 2023).

What was measured:
[1] = tested on: SH-SY5Y-APPSw cells; assay: Thioflavin-T staining of amyloid-like aggregates in SH-SY5Y-APPSw cells; type: cell-based, human
Description: (§1) Several TDZD-conjugated drugs (putative GSK-3 inhibitors) were evaluated for their ability to reduce accumulation of protein aggregates, and for protection against aggregation-associated end-points in the following model systems: (i.) SH-SY5Y-APPSw, a neuroblastoma cell line expressing the Swedish mutation of Amyloid Precursor Protein (APPSw), and thus predisposed to form β-amyloid deposits; (ii.) C. elegans strain CL4176, a model of Alzheimer-like amyloidopathy that can be induced to express human Aβ1-42 in muscle, or may express it at a lower level without induction; (iii.) C. elegans strain AM141, a model of Huntington-like polyglutamine aggregation that constitutively expresses Q40::YFP (a tract of 40 glutamines fused in-frame to yellow fluorescent protein) in muscle cells and forms aggregates progressively with adult aging. The TDZD analog PNR-962 (a putative GSK-3 inhibitor) and other related compounds (not shown) were protective in all aggregation assays.
First, the effects of TDZD analogues were tested on the human neuroblastoma cell line SH-SY5Y-APPSw, a model of Alzheimer-like amyloid aggregation expressing the “Sw” mutant form of Amyloid Precursor Protein, APP. These drugs all produced significant reductions in amyloid-like aggregates, by 30-50% as quantified by thioflavin-T staining intensity (data for PNR-962 are shown in FIG. 4). Modified TDZD-8 analogues PNR-962 and BSK-179 are more anti-aggregative than TDZD-8, lowering total amyloid-staining intensity by a further 14% (data not shown).
Following previously described experimental procedures (Liu, et al. (2005). S100B-induced microglial and neuronal IL-1 expression is mediated by cell type-specific transcription factors. Journal of Neurochemistry. 92(3): 546-553), SH-SY5Y-APPSw neuronal cells expressing an aggregation-prone double mutant of amyloid precursor protein (APPSw) were cultured in DMEM plus 10% (v/v) fetal bovine serum (FBS) at 37° C. Cells were suspended in trypsin/EDTA and rinsed in PBS prior to re-plating or harvesting. […] Human neuroblastoma cells were treated with PNR962, either simultaneous with sAPPα or beginning 1 h prior to sAPPα addition (pre-treatment) in order to ascertain the protective benefits of PNR962 on protein aggregation in human neuroblastoma cell lines. A similar experimental procedure was followed to examine the effect of treatment with these analogs on non-neuronal human cells, exposing human embryonic kidney cells (HEK) that express tau-like aggregates (found in AD-associated diseases) to 0.001, 0.01, and 1-μM doses of TDZD-8 and its analogues.
To observe the protective effects of the novel TDZD analogs on protein aggregation in SY5Y-APPSw cells, using DMEM medium containing 10% fetal calf serum in […], cells were cultured at 37′C for 26 hrs allowing cells to approximately double in number. After 48 h of cell incubation in the presence of specified concentrations of drug or vehicle, cells were fixed 15 min in formaldehyde (4% v/v), washed, and stained 20 min at ˜22° C. in a dark container with 0.1% w/v Thioflavin T mixed with DAPI (1 μg/ml; Life Technologies, Grand Island, N.Y., USA). […] The intensity of aggregate/thioflavin-T fluorescence per field was quantified via an Image J plug-in developed in-house, and normalized to the number of DAPI^+ nuclei counted per field, to obtain an average intensity of aggregates per cell for each treatment.

[2] = tested on: C. elegans strain AM141; assay: Q40::YFP aggregates in C. elegans strain AM141; type: in vivo
Description: as §1
Fresh agar plates supporting bacterial lawns, which serve as food for C. elegans, were prepared at least 1 day ahead of use. C. elegans AM141 (forming Q40::YFP aggregates in muscle, progressively in early adulthood) were placed on these 100-mm plates. Day-4 adult worms were lysed with alkaline hypochlorite solution to obtain eggs from worms, a procedure that permits synchronization of worms in a cohort. Eggs were placed on plates spotted with different concentrations of TDZD analogues after allowing the compounds to be evenly distributed on the plates (˜1 hour after adding drugs to plates). Vehicle-only (DMSO) controls are included in each experiment, as a baseline for drug effects in experimental groups. Young-adult AM141 (day-3 adults) were transferred on alternate days onto fresh plates that contained the same doses of compounds, with fresh E. coli to prevent starvation of worms. Equal samples (n=25) were randomly picked from experimental groups and control group for microscopic imaging. Using an in-house plugin for ImageJ software (NIH), several images of AM141 were processed for aggregate count per worm. The fluorescence intensity of each aggregate (indicating the size/content of protein aggregates) was also measured. Each drug treatment was repeated multiple times to validate the results.

[3] = tested on: wild-type nematodes; assay: Lifespan of C. elegans; type: in vivo; settings: FIG. 8
Description: It was previously shown that several interventions that improve age-associated phenotypes also modulate lifespan (Ayyadevara et al. (2017) Antioxid Redox Signal. 27(17): 1383-1396; Ayyadevara et al. (2005) Aging Cell. 4(5): 257-271). The lifespan was assessed in C. elegans, either mock-treated or exposed to TDZD analogues. PNR-962 and BSK-179 extended the lifespan of wild-type nematodes to an identical degree, increasing the mean by roughly 25-30% (P<0.001; FIG. 8).
To obtain synchronized eggs for lifespan studies, worms were maintained for 2 generations, free of contamination and starvation. Healthy, well-fed adult worms from the 2nd generation were then lysed, and eggs placed on plates with appropriate doses of TDZD analogue PNR962, or DMSO vehicle alone (for a final concentration of 0.02% v/v DMSO). At the L4 larval stage, worms were transferred daily to fresh plates for 7 days, and thereafter on alternate days until all the worms are dead. C. elegans that moved spontaneously or responded to gentle prodding were scored as alive. For the mortality computation, worms that were lost for reasons other than natural death were censored. The methods described were adopted from previously described experimental procedures (Ayyadevara, et al. (2016) PIP3-binding proteins promote age-dependent protein aggregation and limit survival in C. elegans. Oncotarget, 7(31): 48870-48886; Bharill, et al. (2013) Extreme Depletion of PIP3 Accompanies the Increased Life Span and Stress Tolerance of PI3K-null C. elegans Mutants. Frontiers in Genetics, 4).

[4] = tested on: C. elegans; settings: in vivo; cited from earlier work

## CC(=O)Oc1ccccc1C(=O)NCc1ccc(Cn2c(=O)sn(CCCl)c2=O)cc1 [BSK-179]
[1]; data not shown
  further lowering of total amyloid-staining intensity relative to TDZD-8: 14%
[1]; treated for 2 days (FIG. 9)
  amyloid accumulation (thioflavin T stained foci): reduces amyloid accumulation
[2]; C. elegans model of Huntington's Disease (FIG. 7)
  number of aggregation foci: decreases
[2]; FIG. 7
  reduction of total intensity of Q40::YFP aggregates: > 2 fold
[3]
  lifespan: increased

## CC(=O)Oc1ccccc1C(=O)O [aspirin, acetylsalicylic acid, reference compound]
[3]
  lifespan: increased
[4]
  extension of nematode lifespan: 22%
